Measured values: US9757368B2, “Anti-inflammatory agents” (Resverlogix Corp., priority 2009, dated 2017)

Assays:
hIL-6 mRNA = experiment: Quantification of hIL-6 mRNA in LPS-stimulated U937 macrophages (real-time PCR); type: cell-based, human; set-up: key: Active: an active compound is one that causes a ≧20% inhibition in IL-6 mRNA at a concentration less than or equal to 10 μM; conditions: U937 cells differentiated with PMA, 1 h pretreatment, LPS 1 μg/mL, 3 h; IL-6 mRNA normalised to hCyclophilin; compound ≤10 μM
Description: In this example, hIL-6 mRNA in tissue culture cells was quantitated to measure the transcriptional inhibition of hIL-6 when treated with a compound of the invention.
A human leukemic monocytic lymphoma cell line (U937) was plated (3.2×10^5 cells per well) in a 96-well plate in 100 μL RPMI 1640+10% FBS, and differentiated into macrophages with PMA (60 ng/mL) for 3 days prior to the addition of the compound of interest. The cells were pretreated for 1 h with the test compound in DMSO prior to stimulation with lipopolysaccharide from Escherichia coli at 1 μg/mL. The cells were incubated for 3 h before harvest. At the time of harvest, cells were rinsed in 200 μL PBS. Cell lysis solution (70 μL) was added the cells for 10 min, and mRNA was then prepared using the “mRNA Catcher PLUS plate” (Invitrogen), according to the protocol supplied.
The eluted mRNA isolated was then used in a one-step quantitative real-time PCR reaction, using components of the UltraSense kit together with Applied Biosystems primer-probe mixes. 10 μL of template was amplified with 1.75 μL of IL-6 primer-probe, and 1 μL of hCyclophilin primer probe, and the reaction was carried out in multiplex. Real-time PCR data was analyzed, normalizing the Ct values for hIL-6 to hCyclophilin, prior to determining the fold induction of each unknown sample, relative to the control.

hVCAM-1 mRNA = experiment: Quantification of hVCAM-1 mRNA in TNF-α-stimulated HUV-EC-C cells (real-time PCR); type: cell-based, human; set-up: key: Active: an active compound is one that causes a ≧20% inhibition in VCAM-1 mRNA at a concentration less than or equal to 10 μM; conditions: 1 h pretreatment, TNF-α 10 ng/mL, 24 h, VCAM-1 mRNA normalised to hCyclophilin, compound ≤10 μM
Description: In this example, hVCAM-1 mRNA in tissue culture cells was quantitated to measure the transcriptional inhibition of hVCAM when treated with a compound of the invention.
A human umbilical vein endothelial cell line (HUV-EC-C) was plated in a 96-well plate (5.0×10^3 cells/well) in 100 μL EGM complete media and incubated for 24 h prior to the addition of the compound of interest. The cells were pretreated for 1 h with the test compound in DMSO prior to stimulation with tumor necrosis factor-α (10 ng/mL). The cells were incubated for an additional 24 h before harvest. At time of harvest, the cells were rinsed in 200 μL PBS, and cell lysis solution (70 μL) was then added the cells for 10 min. mRNA was then prepared using the “mRNA Catcher PLUS plate” (Invitrogen), according to the protocol supplied.
The eluted mRNA was then used in a one-step quantitative real-time PCR reaction, using components of the UltraSense kit together with Applied Biosystems primer-probe mixes. 10 μL of template was amplified with 1.75 μL of hVCAM-1 primer-probe, and 1 μL of hCyclophilin primer probe, and the reaction was carried out in multiplex. Real-time PCR data was analyzed, normalizing the Ct values for hVCAM-1 to hCyclophilin, prior to determining the fold induction of each unknown sample, relative to the control.

Compound	Inhibition of IL-6 expression (hIL-6 mRNA)	Inhibition of VCAM-1 expression (hVCAM-1 mRNA)
COc1cc(OC)c2c(=O)[nH]c(-c3cc(C)c(CNC(C)=O)c(C)c3)nc2n1 [Example 39, N-[4-(5,7-dimethoxy-4-oxo-3,4-dihydro-pyrido[2,3-d]pyrimidin-2-yl)-2,6-dimethyl-benzyl]-acetamide]	Active	Active
COc1cc(OC)c2c(=O)[nH]c(-c3cc(C)c(OCCNCC(F)(F)F)c(C)c3)nc2c1 [Example 40, 2-{3,5-dimethyl-4-[2-(2,2,2-trifluoro-ethylamino)-ethoxy]-phenyl}-5,7-dimethoxy-3H-quinazolin-4-one]	Active	Active
CNCCOc1c(C)cc(-c2nc3cc(OC)cc(OC)c3c(=O)[nH]2)cc1C [Example 42, 2-(3,5-dimethyl-4-(2-(methylamino)ethoxy)phenyl)-5,7-dimethoxyquinazolin-4(3H)-one]	Active	Active
COc1cc(OC)c2c(=O)[nH]c(-c3cc(C)c(OCCNC(C)C)c(C)c3)nc2c1 [Example 44, 2-(4-(2-(isopropylamino)ethoxy)-3,5-dimethylphenyl)-5,7-dimethoxyquinazolin-4(3H)-one]	Active	Active
COc1cc(OC)c2c(=O)[nH]c(-c3cc(C)c(OCCN(C)C(C)=O)c(C)c3)nc2c1 [Example 47, N-(2-(4-(5,7-dimethoxy-4-oxo-3,4-dihydroquinazolin-2-yl)-2,6-dimethylphenoxy)ethyl)-N-methylacetamide]	Active	Active
COc1cc(OC)c2c(=O)[nH]c(-c3cc(C)c(OCCNC#N)c(C)c3)nc2c1 [Example 51, N-(2-(4-(5,7-dimethoxy-4-oxo-3,4-dihydroquinazolin-2-yl)-2,6-dimethylphenoxy)ethyl)cyanamide]	Active	Active
COc1cc(OC)c2c(=O)[nH]c(-c3ccc4cc(CCO)[nH]c4c3)nc2c1 [Example 58, 2-[2-(2-hydroxyethyl)-1H-indol-6-yl]-5,7-dimethoxy-3H-quinazolin-4-one]	Active	Active
